According to ChEMBL document CHEMBL4190189, “Exploring Jolkinol D Derivatives To Overcome Multidrug Resistance in Cancer” (J Nat Prod, 2017):

Columns and labels:
L5178Y [1] = experiment: Cytotoxicity against mouse L5178Y cells assessed as reduction in cell viability after 72 hrs by MTT assay; format: cell-based
L5178Y [2] = experiment: Cytotoxicity against mouse L5178Y cells transfected with human ABCB1 assessed as reduction in cell viability after 72 hrs by MTT assay; format: functional, cell-based
[3] = target: T1, ATP-dependent translocase ABCB1 (Homo sapiens, UniProt P08183); experiment: Modulation of human ABCB1 expressed in mouse L5178Y cells assessed as fluorescence activity ratio at 2 uM pretreated for 10 mins followed by rhodamine-123 addition measured after 20 mins by flow cytometry (reference value: 0.87); format: cell-based
[4] = target: T1, ATP-dependent translocase ABCB1; experiment: Modulation of human ABCB1 expressed in mouse L5178Y cells assessed as fluorescence activity ratio at 20 uM pretreated for 10 mins followed by rhodamine-123 addition measured after 20 mins by flow cytometry (reference value: 0.87); format: cell-based
[5] = target: T1, ATP-dependent translocase ABCB1; experiment: Inhibition of human ABCB1 expressed in mouse L5178Y cells assessed as potentiation of doxorubicin-induced cytotoxicity by measuring combination index at 5:1 compound to doxorubicin ratio after 48 hrs by MTT assay; format: cell-based
[6] = Cytotoxicity against human EPG85-257RNOV cells assessed as reduction in cell viability after 5 days by SRB assay; format: functional, cell-based; settings: 120 h
[7] = Resistance ratio of IC50 for human EPG85-257P cells to IC50 for human EPG85-257RDB cells; format: functional
[8] = Induction of apoptosis in human EPG85-257P cells at 30 uM after 72 hrs by annexin-V/propidium iodide staining based flow cytometric method relative to control; format: cell-based
[9] = Induction of apoptosis in human EPG85-257RDB cells at 30 uM after 72 hrs by annexin-V/propidium iodide staining based flow cytometric method relative to control; format: functional
[10] = Induction of apoptosis in human EPG85-257P cells assessed as caspase-3 activation at 30 uM after 72 hrs by flow cytometric method relative to control; format: cell-based; settings: EPG85-257P cells, read-out: FC
[11] = Induction of apoptosis in human EPG85-257RDB cells assessed as caspase-3 activation at 30 uM after 72 hrs by flow cytometric method relative to control; format: functional
[12] = Induction of apoptosis in human EPG85-257RNOV cells assessed as caspase-3 activation at 30 uM after 72 hrs by flow cytometric method relative to control; format: functional
[13] = Induction of apoptosis in human EPP85-181RNOV cells at 30 uM after 72 hrs by annexin-V/propidium iodide staining based flow cytometric method relative to control; format: functional
[14] = Induction of apoptosis in human EPP85-181RDB cells at 30 uM after 72 hrs by annexin-V/propidium iodide staining based flow cytometric method relative to control; format: functional
[15] = Induction of apoptosis in human EPP85-181RNOV cells assessed as caspase-3 activation at 30 uM after 72 hrs by flow cytometric method relative to control; format: functional
[16] = Induction of apoptosis in human EPG85-257RNOV cells at 30 uM after 72 hrs by annexin-V/propidium iodide staining based flow cytometric method relative to control; format: functional
[17] = target: T1, ATP-dependent translocase ABCB1; experiment: Inhibition of human ABCB1 expressed in mouse L5178Y cells assessed as potentiation of doxorubicin-induced cytotoxicity by measuring combination index at 50:1 compound to doxorubicin ratio after 48 hrs by MTT assay; format: cell-based
[18] = target: T1, ATP-dependent translocase ABCB1; experiment: Activation of human ABCB1 ATPase activity expressed in Sf9 insect cell membranes assessed as increase in vanadate-sensitive basal ATPase activity at 0.78 to 100 uM measured after 10 mins by colorimetric method relative to control
[19] = target: T2, ABCB1 (P-glycoprotein) ATPase (Homo sapiens, UniProt P08183); experiment: Inhibition of human ABCB1 ATPase activity expressed in Sf9 insect cell membranes assessed as reduction in verapamil-stimulated vanadate-sensitive ATPase activity at 3.13 to […] uM measured after 10 mins by colorimetric method relative to control; settings: Sf9 insect cell membranes expressing human ABCB1, probe verapamil (ATPase stimulator)
[20] = target: T2, ABCB1 (P-glycoprotein) ATPase; experiment: Inhibition of human ABCB1 ATPase activity expressed in Sf9 insect cell membranes assessed as reduction in verapamil-stimulated vanadate-sensitive ATPase activity at 25 to 100 uM measured after 10 mins by colorimetric method relative to control; settings: Sf9 insect cell membranes expressing human ABCB1, probe verapamil (ATPase stimulator)
[21] = target: T1, ATP-dependent translocase ABCB1; experiment: Inhibition of human ABCB1 expressed in mouse L5178Y cells assessed as potentiation of doxorubicin-induced cytotoxicity by measuring combination index at 200:1 compound to doxorubicin ratio after 48 hrs by MTT assay; format: cell-based
[22] = Resistance ratio of IC50 for human EPG85-257P cells to IC50 for human EPG85-257RNOV cells; format: functional
[23] = Resistance ratio of IC50 for human EPP85-181P cells to IC50 for human EPP85-181RDB cells; format: functional
[24] = target: T1, ATP-dependent translocase ABCB1; experiment: Inhibition of human ABCB1 expressed in mouse L5178Y cells assessed as potentiation of doxorubicin-induced cytotoxicity by measuring combination index at 100:1 compound to doxorubicin ratio after 48 hrs by MTT assay; format: cell-based
[25] = target: T1, ATP-dependent translocase ABCB1; experiment: Inhibition of human ABCB1 expressed in mouse L5178Y cells assessed as potentiation of doxorubicin-induced cytotoxicity by measuring combination index at 400:1 compound to doxorubicin ratio after 48 hrs by MTT assay; format: cell-based

T1 sequence (P08183 whole entry): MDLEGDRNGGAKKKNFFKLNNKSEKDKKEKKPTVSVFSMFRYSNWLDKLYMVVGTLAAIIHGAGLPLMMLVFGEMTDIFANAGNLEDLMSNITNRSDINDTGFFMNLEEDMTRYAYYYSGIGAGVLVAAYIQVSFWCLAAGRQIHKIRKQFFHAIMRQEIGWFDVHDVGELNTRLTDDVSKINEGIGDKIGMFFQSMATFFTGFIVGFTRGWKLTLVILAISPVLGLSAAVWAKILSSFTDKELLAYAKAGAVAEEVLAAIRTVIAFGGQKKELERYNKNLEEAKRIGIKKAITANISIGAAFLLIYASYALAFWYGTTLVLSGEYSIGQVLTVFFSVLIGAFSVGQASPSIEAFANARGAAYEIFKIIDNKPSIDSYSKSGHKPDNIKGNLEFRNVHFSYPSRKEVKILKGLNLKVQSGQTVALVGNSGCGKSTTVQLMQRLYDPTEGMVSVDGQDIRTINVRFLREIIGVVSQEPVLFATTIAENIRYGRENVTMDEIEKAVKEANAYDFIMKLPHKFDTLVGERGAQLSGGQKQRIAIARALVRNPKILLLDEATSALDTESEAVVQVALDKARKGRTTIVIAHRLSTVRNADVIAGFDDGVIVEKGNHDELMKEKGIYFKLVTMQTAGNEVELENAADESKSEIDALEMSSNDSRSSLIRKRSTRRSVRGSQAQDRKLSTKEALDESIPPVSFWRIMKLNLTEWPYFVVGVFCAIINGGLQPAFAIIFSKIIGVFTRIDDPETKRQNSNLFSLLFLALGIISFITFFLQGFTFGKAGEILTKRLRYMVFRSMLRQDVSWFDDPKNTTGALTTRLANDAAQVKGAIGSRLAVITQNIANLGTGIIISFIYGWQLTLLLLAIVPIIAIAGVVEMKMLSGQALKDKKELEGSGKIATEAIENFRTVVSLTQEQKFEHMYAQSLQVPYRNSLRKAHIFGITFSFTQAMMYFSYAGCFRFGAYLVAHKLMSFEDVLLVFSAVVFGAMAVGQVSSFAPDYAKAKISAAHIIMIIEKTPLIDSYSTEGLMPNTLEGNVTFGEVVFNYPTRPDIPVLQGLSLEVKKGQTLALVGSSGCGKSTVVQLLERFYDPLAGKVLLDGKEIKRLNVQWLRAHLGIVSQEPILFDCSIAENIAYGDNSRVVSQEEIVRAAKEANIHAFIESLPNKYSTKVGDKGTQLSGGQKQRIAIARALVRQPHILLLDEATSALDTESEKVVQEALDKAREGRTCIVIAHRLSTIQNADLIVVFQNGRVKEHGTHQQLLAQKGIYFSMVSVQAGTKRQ
T2 sequence (P08183 whole entry): as above

Compound | IC50 (L5178Y [1]) [µM] | IC50 (L5178Y [2]) [µM] | Ratio [3] | Ratio [4] | IC50 [6] [µM] | Ratio IC50 [7] | Ratio IC50 [22] | other results
CCOC(=O)O[C@H]1[C@@H](C)C[C@]2(OC(C)=O)C(=O)/C(C)=C/[C@@H]3[C@H](CC/C(C)=C\[C@@H]12)C3(C)C | > 19 | > 19 | 3.1 | 18.7 | < 10 | 0.4 |  | CI [5]: 1.22
CC(=O)O[C@]12C[C@H](C)[C@H](OC(=O)c3cccc(C(F)(F)F)c3)[C@@H]1/C=C(/C)CC[C@H]1[C@@H](/C=C(\C)C2=O)C1(C)C |  |  |  |  |  |  |  | fold change (FC) [8]: 4; fold change (FC) [9]: 6; fold induction at 72 h, 30 µM [10]: 6 to 9; fold change (FC) [11]: 6 - 9; fold change (FC) [12]: 6 - 9; fold change (FC) [13]: 4.5; fold change (FC) [14]: 3.5; fold change (FC) [15]: 12; fold change (FC) [16]: 4
COc1cccc(C(=O)O[C@H]2[C@@H](C)C[C@]3(O)C(=O)/C(C)=C/[C@@H]4[C@H](CC/C(C)=C\[C@@H]23)C4(C)C)c1 | > 19 | > 19 | 12 | 32.8 |  |  |  | CI [17]: 0.38
CC(=O)O[C@]12C[C@H](C)[C@H](O)[C@@H]1/C=C(\C)CC[C@H]1[C@@H](/C=C(\C)C2=O)C1(C)C [JOLKINOL D] |  |  |  |  |  |  |  | Activity [18]: 66 to 87%; inhibition at 10 min [19]: 14 to 40%; inhibition at 10 min [20]: 9 to 33%
C/C1=C/[C@H]2[C@@H](OC(=O)c3ccc4ccccc4c3)[C@@H](C)C[C@]2(O)C(=O)/C(C)=C/[C@@H]2[C@H](CC1)C2(C)C | > 19 | > 19 | 8.3 | 16.7 | < 10 | 0.3 | 0.4 | CI [21]: 0.2; Ratio IC50 [23]: 0.3
CC(=O)O[C@]12C[C@H](C)[C@H](OC(=O)c3ccc(C(F)(F)F)cc3)[C@@H]1/C=C(/C)CC[C@H]1[C@@H](/C=C(\C)C2=O)C1(C)C | > 19 | > 80 | 9.4 | 25.4 | < 10 | 0.4 | 0.2 | 
CC(=O)O[C@]12C[C@H](C)[C@H](OC(=O)c3ccc(-c4ccccc4)cc3)[C@@H]1/C=C(/C)CC[C@H]1[C@@H](/C=C(\C)C2=O)C1(C)C | > 19 | > 19 | 11.6 | 37.2 |  |  | 0.2 | CI [24]: 0.32
CC(=O)O[C@]12C[C@H](C)[C@H](OC(=O)c3ccc4ccccc4c3)[C@@H]1/C=C(/C)CC[C@H]1[C@@H](/C=C(\C)C2=O)C1(C)C | > 19 | > 19 | 11.9 | 31.9 |  |  |  | CI [25]: 0.06
